# Results published in patent US20220087979A1, “TREATMENT OF MALIGNANCIES” (Board of Trustees of Michigan State University, priority 2017, published 2022).
# Tests used:
# [1] = test system: lysosomes of HEK293T cells; experiment: Lysosome de-acidification live imaging (LysoSensor yellow/blue dextran, LAMP1-RFP); format: cell-based, Human; conditions: cells expressing LAMP1-RFP; TCH-165 10 μM, chloroquine 100 μM
# Protocol: HEK293T cells cultured on cover glass slides were transduced with 30 particles per cell of LAMP1-RFP and cultured for 24 h. Cells were then incubated with either vehicle, TCH-165 (10 μM) or chloroquine (100 μM) for 12 h. LysoSensor Yellow/Blue dextran, 10,000 MW, Anionic (1 mg/mL) was then added for a further 12 h and cells imaged with an upright 60× Plan Apo oil objective on a Nikon A1 confocal microscope using standard filter sets for RFP, blue and yellow dyes.
# Lysosensor yellow/blue dextran is a pH sensitive dye that is […] (neutral pH). Lysosomes were distinguished from other acidic organelles by imaging with a combination of lysosensor yellow/blue dextran and LAMP1-RFP.
# U87-MG cells = experiment: Cell viability assay (MTS assay); format: cell-based; conditions: 1 mM, 72 h, FIG. 5D
# Protocol: (§1) FIG. 5B graphically illustrates the viability of glioblastoma cells treated with different concentrations of TCH-165 or TCH-023 for 72 h. MTS reagent was added to quantify cell viability and the absorbance measured at 490 nm 2 h later. Absorbance readings are expressed as percentage of vehicle control for three independent experiments and data are graphed as mean±SD.
# as §1, with “5D is a bar graph showing” for “5B graphically illustrates”, “temozolomide” for “TCH-023”, “was then” for “was”, “added” for “added to quantify cell viability”, “and” for “and the”
# U87-MG cells were seeded in a clear 96-well plate at a density of 1.0×10^4 cells per well. Cells were treated with different concentrations of TCH-165 or temozolomide for 72 h. MTS solution (20 μL) was then added and incubated under cell culture conditions for 2 h. Absorbance was read at 490 nm and expressed as a percentage of vehicle control.
# Fel SCC1 = experiment: Tumor cell growth inhibition, Fel SCC1; format: cell-based; conditions: Felis catus; Feline Squamous Cell Carcinoma cell line Fel SCC1
# Protocol: (§2) The pIC50 values shown in Table 1, herein, was determined as the negative log of the amount of compound required to inhibit tumor cell growth by 50% (the IC50). […] A pIC50 of 4 indicates an IC50 of 10-4.
# Hela cells = experiment: Tumor cell growth inhibition, Hela cells; format: cell-based; conditions: Human Cervical Adenocarcinoma
# Protocol: as §2
# cOS Gracie = experiment: Tumor cell growth inhibition, cOS Gracie; format: cell-based; conditions: Canis lupus familiaris; Canine Osteosarcoma cell line cOS Gracie
# Protocol: as §2
# cOS Brandie primary = experiment: Tumor cell growth inhibition, cOS Brandie primary; format: cell-based; conditions: Canis lupus familiaris; Canine Osteosarcoma cell line cOS Brandie primary
# Protocol: as §2
# cOS Blaz = experiment: Tumor cell growth inhibition, cOS Blaz; format: cell-based; conditions: Canis lupus familiaris; Canine Osteosarcoma cell line cOS Blaz
# Protocol: as §2
# cOS Ginger = experiment: Tumor cell growth inhibition, cOS Ginger; format: cell-based; conditions: Canis lupus familiaris; Canine Osteosarcoma cell line cOS Ginger
# Protocol: as §2
# HS DH82 = experiment: Tumor cell growth inhibition, HS DH82; format: cell-based; conditions: Canis lupus familiaris; Canine Histiocytic Sarcoma cell line HS DH82
# Protocol: as §2
# HS BD = experiment: Tumor cell growth inhibition, HS BD; format: cell-based; conditions: Canis lupus familiaris; Canine Histiocytic Sarcoma cell line HS BD
# Protocol: as §2
# hOS Saos2 = experiment: Tumor cell growth inhibition, hOS Saos2; format: cell-based; conditions: SAOS-2; Human Osteosarcoma cell line hOS Saos2
# Protocol: as §2
# hOS MG63 = experiment: Tumor cell growth inhibition, hOS MG63; format: cell-based; conditions: MG-63; Human Osteosarcoma cell line hOS MG63
# Protocol: as §2
# Normal FB1 = experiment: Cell growth inhibition, Normal FB1; format: cell-based; conditions: Canis lupus familiaris; Canine Normal Firbroblasts Normal FB1
# Protocol: as §2
# cOS D17 = experiment: Tumor cell growth inhibition, cOS D17; format: cell-based; conditions: Canis lupus familiaris; Canine Osteosarcoma cell line cOS D17
# Protocol: as §2
# cOS Brandie mets = experiment: Tumor cell growth inhibition, cOS Brandie mets; format: cell-based; conditions: Canis lupus familiaris; Canine Osteosarcoma cell line cOS Brandie mets
# Protocol: as §2
# cOS Abrams = experiment: Tumor cell growth inhibition, cOS Abrams; format: cell-based; conditions: Canis lupus familiaris; Canine Osteosarcoma cell line cOS Abrams
# Protocol: as §2
# Normal FB2 = experiment: Cell growth inhibition, Normal FB2; format: cell-based; conditions: Canis lupus familiaris; Canine Normal Firbroblasts Normal FB2
# Protocol: as §2
# HS PJ = experiment: Tumor cell growth inhibition, HS PJ; format: cell-based; conditions: Canis lupus familiaris; Canine Histiocytic Sarcoma cell line HS PJ
# Protocol: as §2
# Fel SCC2 = experiment: Tumor cell growth inhibition, Fel SCC2; format: cell-based; conditions: Felis catus, SCC-2; Feline Squamous Cell Carcinoma cell line Fel SCC2
# Protocol: as §2
# hOS U2OS = experiment: Tumor cell growth inhibition, hOS U2OS; format: cell-based; conditions: Human Osteosarcoma cell line hOS U2OS
# Protocol: as §2
# Fel SCC3 = experiment: Tumor cell growth inhibition, Fel SCC3; format: cell-based; conditions: Felis catus, SCC-3; Feline Squamous Cell Carcinoma cell line Fel SCC3
# Protocol: as §2
smiles,measurement,setting,value
"CCN(CC)CCCC(C)Nc1ccnc2cc(Cl)ccc12 (stereo not drawn) [chloroquine, reference compound]",lysosensor yellow/blue dextran fluorescence of lysosomes,[1],shifted the fluorescence to the yellow spectrum
"Cn1nnc2c(C(N)=O)ncn2c1=O [TMZ, temozolomide]",U87-MG cells killed,U87-MG cells,54%
CCOC(=O)[C@]1(c2ccccc2)N=C(c2ccccc2)N(Cc2ccccc2)[C@@H]1c1ccccc1 [TCH-013],IC50,Fel SCC1,10 µM
same,IC50,Hela cells,10 µM
same,IC50,cOS Gracie,6.31 µM
same,IC50,cOS Brandie primary,10 µM
same,IC50,cOS Blaz,12.6 µM
same,IC50,cOS Ginger,3.16 µM
same,IC50,HS DH82,10 µM
same,IC50,HS BD,5.01 µM
same,IC50,hOS Saos2,5.01 µM
same,IC50,hOS MG63,20 µM
same,IC50,Normal FB1,200 µM
same,IC50,cOS D17,20 µM
same,IC50,cOS Brandie mets,15.8 µM
same,IC50,cOS Abrams,15.8 µM
same,IC50,Normal FB2,39.8 µM
same,IC50,HS PJ,3.98 µM
same,IC50,Fel SCC2,200 µM
same,IC50,hOS U2OS,15.8 µM
same,IC50,Fel SCC3,50.1 µM
